{"source": "PubChem BioAssay AID210", "about": "(DTP/NCI, 2004)", "tested_on": "CD2F1 mice, ip Colon 26 adenocarcinoma, median survival T/C", "assay": "NCI In Vivo Anticancer Drug Screen. Data for tumor model Colon 26 Adenocarcinoma (intraperitoneal) in CD2F1 (CDF1) mice", "conditions": "endpoint: median survival time, higher = longer survival", "description": "The antitumor activity of compounds was measured in mice bearing transplantable tumors. Survival or tumor size were measured and the results are expressed as the measurement made in the treated group (T) divided by the measurement made in the vehicle treated control group (C). The tumor model used in this assay is Colon 26 Adenocarcinoma (intraperitoneal) in CD2F1 (CDF1) mice", "note": "Several values for one entry are separate records, joined by “and”; a condition that tells them apart may be missing. Identical values can stand only once. Inconclusive results and toxic doses are left out."}
{"smiles": "COc1cc(NS(C)(=O)=O)ccc1Nc1c2ccccc2nc2ccccc12", "values": [{"measurement": "T/C", "setting": "dose: 0.5 mg/kg/injection, schedule: Q04DX002 (ip), vehicle: other", "result": "111 % of control"}, {"measurement": "T/C", "setting": "dose: 0.5 mg/kg/injection, schedule: Q04DX003 (ip), vehicle: other", "result": "98 % of control"}, {"measurement": "T/C", "setting": "dose: 1.0 mg/kg/injection, schedule: Q04DX002 (ip), vehicle: other", "result": "119 % of control"}, {"measurement": "T/C", "setting": "dose: 1.0 mg/kg/injection, schedule: Q04DX003 (ip), vehicle: other", "result": "112 % of control"}, {"measurement": "T/C", "setting": "dose: 2.0 mg/kg/injection, schedule: Q04DX003 (ip), vehicle: other", "result": "117 % of control"}, {"measurement": "T/C", "setting": "dose: 4.0 mg/kg/injection, schedule: Q04DX002 (ip), vehicle: other", "result": "151 % of control"}, {"measurement": "T/C", "setting": "dose: 8.0 mg/kg/injection, schedule: Q04DX002 (ip), vehicle: other", "result": "185 % of control"}, {"measurement": "T/C", "setting": "dose: 8.0 mg/kg/injection, schedule: Q04DX003 (ip), vehicle: other", "result": "156 % of control"}, {"measurement": "T/C", "setting": "dose: 16.0 mg/kg/injection, schedule: Q04DX002 (ip), vehicle: other", "result": "240 % of control"}, {"measurement": "T/C", "setting": "dose: 16.0 mg/kg/injection, schedule: Q04DX003 (ip), vehicle: other", "result": "170 % of control"}]}
{"smiles": "CCC(C)C(=O)O[C@H]1C(=O)O[C@@H]2C[C@H]3C(C)=CC(=O)[C@@H](O)[C@]3(C)[C@H]3[C@@H](O)[C@H](O)[C@@]4(C)OC[C@]32[C@@H]14", "note": "(stereo partly drawn)", "values": [{"measurement": "T/C", "setting": "dose: 0.5 mg/kg/injection, schedule: Q04DX002 (ip), vehicle: saline", "result": "102 % of control"}, {"measurement": "T/C", "setting": "dose: 1.0 mg/kg/injection, schedule: Q04DX002 (ip), vehicle: saline", "result": "98 % of control"}, {"measurement": "T/C", "setting": "dose: 2.0 mg/kg/injection, schedule: Q04DX002 (ip), vehicle: saline", "result": "97 % of control"}]}
{"smiles": "COC12[C@@H]3N[C@@H]3CN1C1=C(C(=O)C(NCCSSCCNC3=C(C)C(=O)C4=C(C3=O)C(COC(N)=O)[C@]3(OC)C5N[C@@H]5CN43)=C(C)C1=O)[C@@H]2COC(N)=O", "note": "(stereo partly drawn)", "values": [{"measurement": "T/C", "setting": "dose: 1.0 mg/kg/injection, schedule: Q01DX004 (ip), vehicle: other", "result": "94 % of control"}, {"measurement": "T/C", "setting": "dose: 2.0 mg/kg/injection, schedule: Q01DX004 (ip), vehicle: other", "result": "99 % of control"}, {"measurement": "T/C", "setting": "dose: 2.0 mg/kg/injection, schedule: Q03DX002 (ip), vehicle: other", "result": "100 % of control"}, {"measurement": "T/C", "setting": "dose: 4.0 mg/kg/injection, schedule: Q01DX004 (ip), vehicle: other", "result": "107 % of control"}, {"measurement": "T/C", "setting": "dose: 4.0 mg/kg/injection, schedule: Q03DX002 (ip), vehicle: other", "result": "117 % of control"}, {"measurement": "T/C", "setting": "dose: 6.0 mg/kg/injection, schedule: Q01DX004 (ip), vehicle: other", "result": "101 % of control"}, {"measurement": "T/C", "setting": "dose: 6.0 mg/kg/injection, schedule: Q01DX005 (ip), vehicle: other", "result": "96 % of control"}, {"measurement": "T/C", "setting": "dose: 9.0 mg/kg/injection, schedule: Q01DX005 (ip), vehicle: other", "result": "96 % of control"}, {"measurement": "T/C", "setting": "dose: 9.0 mg/kg/injection, schedule: Q03DX002 (ip), vehicle: other", "result": "110 % of control"}, {"measurement": "T/C", "setting": "dose: 15.0 mg/kg/injection, schedule: Q01DX005 (ip), vehicle: other", "result": "106 % of control"}]}
{"smiles": "CC1CCC(NC(=O)N(CCCl)N=O)CC1", "note": "(stereo not drawn)", "values": [{"measurement": "T/C", "setting": "dose: 5.0 mg/kg/injection, schedule: Q04DX003 (ip), vehicle: Klucel (hydroxypropylcellulose) (HPC)", "result": "250 % of control"}, {"measurement": "T/C", "setting": "dose: 6.7 mg/kg/injection, schedule: Q04DX002 (ip), vehicle: saline with Tween-80", "result": "106 % of control"}, {"measurement": "T/C", "setting": "dose: 10.0 mg/kg/injection, schedule: Q04DX002 (ip), vehicle: saline with Tween-80", "result": "108 % of control"}, {"measurement": "T/C", "setting": "dose: 10.0 mg/kg/injection, schedule: Q04DX003 (ip), vehicle: Klucel (hydroxypropylcellulose) (HPC)", "result": "305 % of control"}, {"measurement": "T/C", "setting": "dose: 12.0 mg/kg/injection, schedule: Q07DX003 (ip), vehicle: saline with Tween-80", "result": "189 % of control and 219 % of control"}, {"measurement": "T/C", "setting": "dose: 15.0 mg/kg/injection, schedule: Q04DX002 (ip), vehicle: saline with Tween-80", "result": "123 % of control"}, {"measurement": "T/C", "setting": "dose: 17.0 mg/kg/injection, schedule: Q07DX003 (ip), vehicle: saline with Tween-80", "result": "262 % of control and 288 % of control"}, {"measurement": "T/C", "setting": "dose: 20.0 mg/kg/injection, schedule: Q01DX001 (ip), vehicle: other", "result": "217 % of control"}, {"measurement": "T/C", "setting": "dose: 20.0 mg/kg/injection, schedule: Q04DX003 (ip), vehicle: Klucel (hydroxypropylcellulose) (HPC)", "result": "437 % of control"}, {"measurement": "T/C", "setting": "dose: 24.0 mg/kg/injection, schedule: Q07DX003 (ip), vehicle: saline with Tween-80", "result": "288 % of control and 354 % of control"}, {"measurement": "T/C", "setting": "dose: 30.0 mg/kg/injection, schedule: Q01DX001 (ip), vehicle: other", "result": "217 % of control"}, {"measurement": "T/C", "setting": "dose: 30.0 mg/kg/injection, schedule: Q01DX005 (ip), vehicle: saline with Tween-80", "result": "352 % of control"}, {"measurement": "T/C", "setting": "dose: 40.0 mg/kg/injection, schedule: Q01DX005 (ip), vehicle: saline with Tween-80", "result": "329 % of control"}, {"measurement": "T/C", "setting": "dose: 55.0 mg/kg/injection, schedule: Q01DX005 (ip), vehicle: saline with Tween-80", "result": "172 % of control"}]}
{"smiles": "CC1C(=O)CCC2(C)C1CCC1CC3CC12CCC3(O)CO", "note": "(stereo not drawn)", "values": [{"measurement": "T/C", "setting": "dose: 25.0 mg/kg/injection, schedule: Q04DX002 (ip), vehicle: saline + alcohol", "result": "100 % of control"}, {"measurement": "T/C", "setting": "dose: 50.0 mg/kg/injection, schedule: Q04DX002 (ip), vehicle: saline + alcohol", "result": "106 % of control"}, {"measurement": "T/C", "setting": "dose: 100.0 mg/kg/injection, schedule: Q04DX002 (ip), vehicle: saline + alcohol", "result": "92 % of control"}]}
{"smiles": "Cc1ncc([N+](=O)[O-])n1CCO", "values": [{"measurement": "T/C", "setting": "dose: 37.5 mg/kg/injection, schedule: Q04DX003 (ip), vehicle: Klucel (hydroxypropylcellulose) (HPC)", "result": "114 % of control"}, {"measurement": "T/C", "setting": "dose: 75.0 mg/kg/injection, schedule: Q04DX003 (ip), vehicle: Klucel (hydroxypropylcellulose) (HPC)", "result": "118 % of control"}, {"measurement": "T/C", "setting": "dose: 150.0 mg/kg/injection, schedule: Q04DX003 (ip), vehicle: Klucel (hydroxypropylcellulose) (HPC)", "result": "106 % of control"}, {"measurement": "T/C", "setting": "dose: 300.0 mg/kg/injection, schedule: Q04DX003 (ip), vehicle: Klucel (hydroxypropylcellulose) (HPC)", "result": "109 % of control"}, {"measurement": "T/C", "setting": "dose: 600.0 mg/kg/injection, schedule: Q04DX003 (ip), vehicle: Klucel (hydroxypropylcellulose) (HPC)", "result": "108 % of control"}]}
{"smiles": "CC[C@]1(O)C[C@H]2CN(CCc3c([nH]c4ccccc34)[C@@](C(=O)OC)(c3cc4c(cc3OC)N(C=O)[C@H]3[C@@](O)(C(=O)OC)[C@H](OC(C)=O)[C@]5(CC)C=CCN6CC[C@]43[C@@H]65)C2)C1", "values": [{"measurement": "T/C", "setting": "dose: 0.95 mg/kg/injection, schedule: Q07DX003 (ip), vehicle: saline", "result": "112 % of control and 115 % of control"}, {"measurement": "T/C", "setting": "dose: 1.4 mg/kg/injection, schedule: Q07DX003 (ip), vehicle: saline", "result": "120 % of control and 123 % of control"}, {"measurement": "T/C", "setting": "dose: 2.1 mg/kg/injection, schedule: Q07DX003 (ip), vehicle: saline", "result": "105 % of control"}, {"measurement": "T/C", "setting": "dose: 3.0 mg/kg/injection, schedule: Q07DX003 (ip), vehicle: saline", "result": "99 % of control"}]}
{"smiles": "CSC1SCC2C(=O)N(C)C(C(C)C)C(=O)OCC(NC(=O)c3cnc4ccccc4n3)C(=O)NC(C)C(=O)N(C)C1C(=O)N(C)C(C(C)C)C(=O)OCC(NC(=O)c1cnc3ccccc3n1)C(=O)NC(C)C(=O)N2C", "note": "(stereo not drawn)", "values": [{"measurement": "T/C", "setting": "dose: 25.0 micrograms/kg/injection, schedule: Q01DX004 (ip), vehicle: saline sonified", "result": "87 % of control"}, {"measurement": "T/C", "setting": "dose: 100.0 micrograms/kg/injection, schedule: Q01DX004 (ip), vehicle: saline sonified", "result": "86 % of control"}, {"measurement": "T/C", "setting": "dose: 100.0 micrograms/kg/injection, schedule: Q03DX002 (ip), vehicle: saline sonified", "result": "94 % of control"}, {"measurement": "T/C", "setting": "dose: 150.0 micrograms/kg/injection, schedule: Q03DX002 (ip), vehicle: saline sonified", "result": "90 % of control"}]}
{"smiles": "ClC(Cl)=C(Cl)Cl", "values": [{"measurement": "T/C", "setting": "dose: 75.0 mg/kg/injection, schedule: Q04DX002 (ip), vehicle: other", "result": "101 % of control"}, {"measurement": "T/C", "setting": "dose: 150.0 mg/kg/injection, schedule: Q04DX002 (ip), vehicle: other", "result": "93 % of control"}, {"measurement": "T/C", "setting": "dose: 300.0 mg/kg/injection, schedule: Q04DX002 (ip), vehicle: other", "result": "89 % of control"}]}
{"smiles": "Cc1c[nH]c(=O)[nH]c1=O", "values": [{"measurement": "T/C", "setting": "dose: 16.0 mg/kg/injection, schedule: Q04DX002 (ip), vehicle: Klucel (hydroxypropylcellulose) (HPC)", "result": "97 % of control"}, {"measurement": "T/C", "setting": "dose: 32.0 mg/kg/injection, schedule: Q04DX002 (ip), vehicle: Klucel (hydroxypropylcellulose) (HPC)", "result": "101 % of control"}, {"measurement": "T/C", "setting": "dose: 64.0 mg/kg/injection, schedule: Q04DX002 (ip), vehicle: Klucel (hydroxypropylcellulose) (HPC)", "result": "101 % of control and 94 % of control and 96 % of control"}, {"measurement": "T/C", "setting": "dose: 128.0 mg/kg/injection, schedule: Q04DX002 (ip), vehicle: Klucel (hydroxypropylcellulose) (HPC)", "result": "101 % of control and 88 % of control and 95 % of control"}, {"measurement": "T/C", "setting": "dose: 256.0 mg/kg/injection, schedule: Q04DX002 (ip), vehicle: Klucel (hydroxypropylcellulose) (HPC)", "result": "110 % of control and 92 % of control and 97 % of control"}, {"measurement": "T/C", "setting": "dose: 512.0 mg/kg/injection, schedule: Q04DX002 (ip), vehicle: Klucel (hydroxypropylcellulose) (HPC)", "result": "91 % of control"}, {"measurement": "T/C", "setting": "dose: 1024.0 mg/kg/injection, schedule: Q04DX002 (ip), vehicle: Klucel (hydroxypropylcellulose) (HPC)", "result": "86 % of control"}]}
